Measured values reported in ChEMBL document CHEMBL1201862, “PubChem BioAssay data set” (2004).
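Results reflect a 48-hour exposure of cells in 96-well plates to compound at five concentrations. GI50 = concentration required for 50% inhibition of growth.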 Active and inactive are the calls of the source. Cut-off read from the data, not from the text of the source: active = GI50 up to about 1.1 µM and inactive = higher.

Columns and labels:
Experiment in all cases: NCI tumour cell line growth inhibition, 48 h
U-251 = system: U-251
OVCAR-5 = system: OVCAR-5
SW-620 = system: SW-620
KM12 = system: KM12
NCI-H226 = system: NCI-H226
EKVX = system: EKVX
SNB-75 = system: SNB-75
MOLT-4 = system: MOLT-4
HT-29 = system: HT-29
UO-31 = system: UO-31
Malme-3M = system: Malme-3M
A498 = system: A498
UACC-257 = system: UACC-257
UACC-62 = system: UACC-62
K562 = system: K562
HOP-92 = system: HOP-92
MDA-MB-435 = system: MDA-MB-435
MDA-MB-231 = system: MDA-MB-231
MCF7 = system: MCF7

Measured: GI50

COC(C)(C)[C@H](O)C(O)CC(C)[C@@H]1CCC23CC12CCC1[C@@]2(C)CCC(OC(C)=O)C(C)(C)C2CC(OC2OC(COC(C)=O)C(O)C(O)C2O)[C@]13C (stereo not given in full)
inactive: U-251 2.67 µM | OVCAR-5 2.34 µM | SW-620 5.35 µM | KM12 2.16 µM | NCI-H226 8.32 µM | EKVX 7.46 µM | SNB-75 3.8 µM | MOLT-4 4.19 µM | HT-29 1.22 µM | UO-31 6.95 µM | Malme-3M 7.87 µM | A498 8.83 µM | UACC-257 3.76 µM | UACC-62 2.77 µM | K562 2.34 µM | HOP-92 3.72 µM

COC(=O)C1=C(O)C(C(=O)OC)[C@]2(O)[C@@H](C(=O)OC)[C@H]1[C@H](C)[C@@H](c1ccccc1)[C@@H]2C(=O)OC (stereo not given in full)
inactive: U-251 > 100 µM | MDA-MB-435 46.1 µM | OVCAR-5 > 100 µM | SW-620 44.3 µM | KM12 > 100 µM | NCI-H226 78.9 µM | EKVX 55.7 µM | SNB-75 > 100 µM | MOLT-4 85.9 µM | HT-29 > 100 µM | Malme-3M 42.2 µM | MDA-MB-231 > 100 µM | UACC-257 > 100 µM | UACC-62 65.5 µM | K562 57.4 µM

Cc1ccc(-n2c(C)n[nH]c2=O)cc1
inactive: U-251 > 100 µM | MDA-MB-435 > 100 µM | OVCAR-5 > 100 µM | MCF7 > 100 µM | SW-620 > 100 µM | KM12 > 100 µM | EKVX > 100 µM | SNB-75 > 100 µM | MOLT-4 > 100 µM | HT-29 > 100 µM | UO-31 > 100 µM | MDA-MB-231 > 100 µM | UACC-257 > 100 µM | UACC-62 > 100 µM | K562 > 100 µM | HOP-92 > 100 µM

O=C(C(=O)N1CC2C=CC1CC2)c1c[nH]c2ccccc12 (stereo not given)
inactive: U-251 > 100 µM | OVCAR-5 > 100 µM | SW-620 > 100 µM | KM12 > 100 µM | NCI-H226 > 100 µM | SNB-75 82.4 µM | MOLT-4 > 100 µM | HT-29 > 100 µM | UO-31 > 100 µM | Malme-3M > 100 µM | A498 > 100 µM | UACC-257 > 100 µM | UACC-62 > 100 µM | K562 > 100 µM | HOP-92 > 100 µM

CCOP(=O)(C/C(O)=C1\C(=O)C(CCCNC(=O)OC(C)(C)C)N(Cc2ccc(OC)c(OC)c2)C1=O)OCC (stereo not given)
inactive: U-251 > 100 µM | OVCAR-5 > 100 µM | SW-620 > 100 µM | KM12 > 100 µM | NCI-H226 77.4 µM | EKVX > 100 µM | SNB-75 > 100 µM | MOLT-4 > 100 µM | HT-29 > 100 µM | UO-31 > 100 µM | Malme-3M > 100 µM | A498 > 100 µM | UACC-257 > 100 µM | UACC-62 > 100 µM | K562 > 100 µM

CC1(C)C(=O)C(C)(C)C1=S
inactive: U-251 > 100 µM | OVCAR-5 > 100 µM | SW-620 > 100 µM | KM12 > 100 µM | NCI-H226 > 100 µM | EKVX > 100 µM | SNB-75 18.6 µM | MOLT-4 > 100 µM | HT-29 > 100 µM | UO-31 > 100 µM | Malme-3M > 100 µM | A498 > 100 µM | UACC-257 > 100 µM | UACC-62 > 100 µM | K562 > 100 µM

COc1ccc(-c2cc(=O)c3ccccc3[nH]2)c(OC)c1
inactive: U-251 > 100 µM | SW-620 > 100 µM | KM12 > 100 µM | EKVX > 100 µM | SNB-75 > 100 µM | MOLT-4 > 100 µM | HT-29 > 100 µM | UO-31 > 100 µM | Malme-3M > 100 µM | UACC-257 > 100 µM | UACC-62 > 100 µM | K562 > 100 µM

CCO/C=C/C(C)C1(C(=O)OCC)CCCCC1=O (stereo not given)
inactive: U-251 > 100 µM | OVCAR-5 > 100 µM | KM12 > 100 µM | NCI-H226 > 100 µM | EKVX > 100 µM | SNB-75 > 100 µM | MOLT-4 > 100 µM | HT-29 > 100 µM | UO-31 > 100 µM | Malme-3M > 100 µM | A498 > 100 µM | UACC-257 > 100 µM | UACC-62 > 100 µM | K562 > 100 µM | HOP-92 > 100 µM

NC1=NN(c2ccccc2)C(=O)C1C(=O)C(=O)Nc1nccs1 (stereo not given)
inactive: U-251 > 100 µM | OVCAR-5 > 100 µM | SW-620 > 100 µM | KM12 > 100 µM | NCI-H226 > 100 µM | EKVX > 100 µM | SNB-75 62.1 µM | MOLT-4 > 100 µM | HT-29 > 100 µM | UO-31 > 100 µM | Malme-3M > 100 µM | A498 > 100 µM | UACC-257 > 100 µM | UACC-62 > 100 µM | K562 > 100 µM | HOP-92 > 100 µM

CCOC(=O)C1=C(Nc2ccc(Br)cc2)OCC1=O
inactive: U-251 > 100 µM | SW-620 > 100 µM | KM12 > 100 µM | NCI-H226 > 100 µM | EKVX > 100 µM | SNB-75 > 100 µM | MOLT-4 > 100 µM | HT-29 > 100 µM | UO-31 > 100 µM | Malme-3M > 100 µM | A498 > 100 µM | UACC-257 > 100 µM | UACC-62 > 100 µM | HOP-92 > 100 µM

Oc1ccc2c3c1OC1C(=NN=C4CCC5(O)C6Cc7ccc(O)c8c7C5(CCN6CC5CC5)C4O8)CCC4(O)C(C2)N(CC2CC2)CCC314 (stereo not given)
inactive: U-251 17.7 µM | OVCAR-5 > 100 µM | SW-620 20.8 µM | KM12 19.8 µM | NCI-H226 > 100 µM | EKVX 32.4 µM | SNB-75 41.6 µM | MOLT-4 23.7 µM | HT-29 17.1 µM | UO-31 > 100 µM | Malme-3M 19.8 µM | A498 > 42.8 µM | UACC-257 20.4 µM | UACC-62 20.5 µM | K562 17.2 µM | HOP-92 21.1 µM

CCCCCCCCCCCCOP(N)(=O)OCCCCCCCCCCCC
inactive: U-251 > 100 µM | SW-620 > 100 µM | EKVX > 100 µM | SNB-75 > 100 µM | MOLT-4 > 100 µM | UO-31 > 100 µM | Malme-3M > 100 µM | UACC-257 > 100 µM | UACC-62 > 100 µM | K562 > 100 µM

Nc1ncnc2c1sc(=S)n2-c1ccccc1
inactive: U-251 > 100 µM | OVCAR-5 > 100 µM | SW-620 > 100 µM | KM12 > 100 µM | NCI-H226 > 100 µM | EKVX > 100 µM | SNB-75 > 100 µM | MOLT-4 > 100 µM | HT-29 > 100 µM | UO-31 89.3 µM | Malme-3M > 100 µM | A498 82.8 µM | UACC-257 > 100 µM | UACC-62 > 100 µM | K562 > 100 µM | HOP-92 40.8 µM

N/N=C1\C(=O)N(c2ccc(Cl)cc2Cl)C(=O)C(=O)C1c1nc2ccccc2o1 (stereo not given)
inactive: U-251 > 100 µM | OVCAR-5 > 100 µM | SW-620 > 100 µM | KM12 > 100 µM | NCI-H226 > 100 µM | EKVX > 100 µM | SNB-75 > 100 µM | MOLT-4 > 100 µM | HT-29 > 100 µM | UO-31 48.3 µM | Malme-3M > 100 µM | A498 > 100 µM | UACC-257 > 100 µM | UACC-62 11.4 µM | K562 > 100 µM | HOP-92 > 100 µM

Cc1ccc2nc(NC(=O)C(=O)C(C(=O)c3ccc4ccccc4c3)C3OC(=O)c4ccccc43)sc2c1 (stereo not given)
inactive: U-251 2.81 µM | OVCAR-5 11.6 µM | SW-620 5.86 µM | KM12 16.8 µM | NCI-H226 2.1 µM | EKVX 17.5 µM | HT-29 15.2 µM | UO-31 14.6 µM | Malme-3M 10.1 µM | A498 5.48 µM | UACC-257 13.1 µM | UACC-62 6.98 µM | HOP-92 3.53 µM

CC(=O)O[C@H]1CC[C@@]2(C)C(=CC[C@@H]3C2CC[C@]2(C)Nc4[nH]ncc4CC32)C1 (stereo not given in full)
inactive: U-251 15 µM | OVCAR-5 > 100 µM | SW-620 34.8 µM | KM12 16.6 µM | NCI-H226 > 100 µM | EKVX 29.8 µM | SNB-75 85.9 µM | MOLT-4 15.4 µM | HT-29 16.9 µM | UO-31 87.7 µM | Malme-3M 25.6 µM | A498 > 100 µM | UACC-257 16.6 µM | UACC-62 26.1 µM | K562 20.7 µM

N#CCC(=O)N/N=C1/C(=O)NC(=O)C(=O)C1c1nc2ccccc2s1 (stereo not given)
inactive: U-251 > 100 µM | OVCAR-5 > 100 µM | SW-620 > 100 µM | NCI-H226 50.1 µM | EKVX > 100 µM | SNB-75 > 100 µM | MOLT-4 > 100 µM | HT-29 > 100 µM | UO-31 > 100 µM | Malme-3M > 100 µM | A498 > 100 µM | UACC-257 > 100 µM | UACC-62 > 100 µM | K562 > 100 µM | HOP-92 67.5 µM

CC(C)(C)C1CC[C@H]2c3c([nH]c4ccc(Br)cc34)[C@H]3C(=O)N(c4ccccc4)C(=O)[C@H]3[C@H]2C1 (stereo not given in full)
inactive: U-251 10.4 µM | OVCAR-5 > 100 µM | SW-620 17.4 µM | KM12 17.6 µM | NCI-H226 35.2 µM | EKVX 92.9 µM | SNB-75 18.5 µM | MOLT-4 15.6 µM | HT-29 43 µM | UO-31 74.8 µM | Malme-3M 31.6 µM | UACC-257 > 100 µM | UACC-62 23.3 µM | K562 11.5 µM | HOP-92 23.1 µM
